Reference: US5665719A, “Benzoxazinone and benzopyrimidinone piperidinyl tocolytic oxytocin receptor antagonists” (Merck & Co., Inc., priority 1995, dated 1997)
pIC50: −log10 of the molar value.

What follows are compounds tested against T1, uterine OT receptors (Rattus norvegicus, UniProt P70536) (assay: [3H]Oxytocin (OT) radioligand binding to uterine OT receptors, crude uterine membranes from DES-treated rats). Details: not given.
T1 construct: from tissue; host or cells: uterus of diethylstilbestrol dipropionate (DES)-treated rats, crude membrane preparation
T1 sequence (P70536 1-388): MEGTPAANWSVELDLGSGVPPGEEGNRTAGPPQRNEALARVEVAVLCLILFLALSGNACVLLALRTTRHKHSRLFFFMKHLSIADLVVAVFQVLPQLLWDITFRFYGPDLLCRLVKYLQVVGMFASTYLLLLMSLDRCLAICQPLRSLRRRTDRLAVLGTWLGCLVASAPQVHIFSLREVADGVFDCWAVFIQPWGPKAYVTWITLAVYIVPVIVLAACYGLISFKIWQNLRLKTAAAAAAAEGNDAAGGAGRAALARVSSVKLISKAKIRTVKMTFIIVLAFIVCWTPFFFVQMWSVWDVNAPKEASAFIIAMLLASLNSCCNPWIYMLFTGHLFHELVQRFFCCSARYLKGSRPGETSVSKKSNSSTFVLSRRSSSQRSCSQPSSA
Procedure: Competition studies were conducted at equilibrium (60 minutes; 22° C.) using 1 nM[^3 H]OT in the following assay buffer: 50 mM Tris-HCl, 5 mM MgCl2, and 0.1% BSA, pH 7.4. Nonspecific binding (10% of the total binding) was determined using 1 μM unlabeled OT and the binding reaction was terminated by filtration through glass fiber filters using a cell harvester (model 7019, Skatron, Inc., Sterling, Va.).
IC50 values were determined for the [^3 H]OT and [^3 H]AVP binding assays by linear regression of the relation log concentration of compound vs. percent inhibition of specific binding. Data is either reported as a given percentage of inhibition at a specified concentration,or if an IC50 was calculated, as a nanomolar concentration.

Compound | pIC50
COc1cc(OCCCN2C(=O)CN(C)C2=O)ccc1C(=O)N1CCC(N2C(=O)OCc3ccccc32)CC1 [Example 22, 1-(1-(4-(3-(1-Methylimidazoline-2,4-dione-3-yl)propoxy)-2-methoxybenzoyl)piperidin-4-yl)-1,2-dihydro-4(H)-3,1-benzoxazin-2-one] | 6.59
CC(=O)N(C)CCCOc1ccc(C(=O)N2CCC(N3C(=O)OCc4ccccc43)CC2)cc1 [Example 24, 1-(1-(4-(3-(N-Methyl(acetylamino))propoxy)benzoyl)piperidin-4-yl)-1,2-dihydro-4(H)-3,1-benzoxazin-2-one] | 6.26
O=C(Nc1ccc(CC(=O)N2CCC(N3C(=O)OCc4ccccc43)CC2)cc1)c1ccc2[nH]cnc2c1 [Example 9, 1-(1-(4-((5-Benzimidazolylcarbonyl)amino)phenylacetyl)piperidin-4-yl)-1,2-dihydro-4(H)-3,1-benzoxazin-2-one] | 6.55
COc1cc(OCCCNS(C)(=O)=O)ccc1C(=O)N1CCC(N2C(=O)OCc3ccccc32)CC1 [Example 17, 1-(1-(4-(3-((Methylsulfonyl)amino)propoxy)-2-methoxybenzoyl)piperidin-4-yl)-1,2-dihydro-4(H)-3,1-benzoxazin-2-one] | 7.09
O=C(/C=C/c1ccccc1)N1CCC(N2C(=O)OCc3ccccc32)CC1 [Example 7, 1-(1-(Cinnamoyl)piperidin-4-yl)-1,2-dihydro-4(H)-3,1-benzoxazin-2-one] | 5.21
COc1cc(OCCCNC(=O)C2CCNCC2)c(Cl)cc1C(=O)N1CCC(N2C(=O)OCc3ccccc32)CC1 [Example 15, 1-(1-(4-(3-(4-Piperidinylcarbonylamino)propoxy)-6-methoxy-3-chlorobenzoyl)piperidin-4-yl)-1,2-dihydro-4(H)-3,1-benzoxazin-2-one] | 7.25
CCN(CC)CCS(=O)(=O)N1CCC(Oc2ccc(C(=O)N3CCC(N4C(=O)OCc5ccccc54)CC3)c(OC)c2)CC1 [Example 46, 1-(1-(4-(1-(Diethylaminoethylsulfonyl)-4-piperidinyloxy)-2-methoxybenzoyl)piperidin-4-yl)-1,2-dihydro-4(H)-3,1-benzoxazin-2-one] | 7.64
O=C(c1ccc(OC2CCNCC2)cc1Cl)N1CCC(N2C(=O)OCc3ccccc32)CC1 [Example 52, 1-(1-(4-(4-Piperidinyloxy)-2-chlorobenzoyl)piperidin-4-yl)-1,2-dihydro-4(H)-3,1-benzoxazin-2-one] | 5.37
CCOC(=O)CN1CCC(Oc2ccc(C(=O)N3CCC(N4C(=O)OCc5ccccc54)CC3)c(OC)c2)CC1 [Example 48, 1-(1-(4-(1-(Ethoxycarbonylmethyl)-4-piperidinyloxy)-2-methoxybenzoyl)piperidin-4-yl)-1,2-dihydro-4(H)-3,1-benzoxazin-2-one] | 6.47
COc1cc(OC2CCN(C(=O)Cc3cnc[nH]3)CC2)ccc1C(=O)N1CCC(N2C(=O)OCc3ccccc32)CC1 [Example 45, 1-(1-(4-(1-(4(5)-Imidazolylacetyl)-4-piperidinyloxy)-2-methoxybenzoyl)piperidin-4-yl)-1,2-dihydro-4(H)-3,1-benzoxazin-2-one] | 7.36
COc1cc(OCCCNC(=O)C2CCNCC2)ccc1C(=O)N1CCC(N2C(=O)OCc3ccccc32)CC1 [Example 14, 1-(1-(4-(3-(4-Piperidinylcarbonylamino)propoxy)-2-methoxybenzoyl)piperidin-4-yl)-1,2-dihydro-4(H)-3,1-benzoxazin-2-one] | 7.13
COc1cc(OCCCN)ccc1C(=O)N1CCC(N2C(=O)OCc3ccccc32)CC1 [Example 12, 1-(1-(4-(3-Aminopropoxy)-2-methoxybenzoyl)piperidin-4-yl)-1,2-dihydro-4(H)-3,1-benzoxazin-2-one] | 6.39
COc1cc(OC2CCN(S(=O)(=O)CCCN(C)C3CC3)CC2)ccc1C(=O)N1CCC(N2C(=O)OCc3ccccc32)CC1 [Example 66, 1-(1-(4-(1-((3-N-Cyclopropyl-N-methylamino)propylsulfonyl)piperidin-4-yloxy)-2-methoxybenzoyl)piperidin-4-yl)-1,2-dihydro-4(H)-3,1-benzoxazin-2-one] | 7.60
COc1ccc(C(=O)N2CCC(N3C(=O)OCc4ccccc43)CC2)c([N+](=O)[O-])c1 [Example 44, 1-(1-(4-Methoxy-2-nitrobenzoyl)piperidin-4-yl)-1,2-dihydro-4(H)-3,1-benzoxazin-2-one] | 5.30
COc1ccc(C(=O)N2CCC(N3C(=O)Cc4ccccc43)CC2)c(OC)c1 [Example 55, 1-(1-(2,4-dimethoxybenzoyl)-4-piperidyl)indol-2-one] | 5.21
COc1cc(OC2CCN(C(=O)CCCN)CC2)ccc1C(=O)N1CCC(N2C(=O)OCc3ccccc32)CC1 [Example 30, 1-(1-(4-(1-(4-Aminobutanoyl)-4-piperidinyloxy)-2-methoxybenzoyl)piperidin-4-yl)-1,2-dihydro-4(H)-3,1-benzoxazin-2-one] | 7.16

Same assay, conditions: competition vs 1 nM [3H]OT, 60 minutes, 22° C., pH 7.4, rat uterus membranes; read-out: Result For [3H]OT (IC50)

pIC50 | Compound
6.23 | COc1ccc(C(=O)N2CCC(N3C(=O)OCc4sccc43)CC2)c(OC)c1 [Example 63, 1-(1-(2,4-dimethoxybenzoyl)piperidin-4-yl)-1,2-dihydro-4 (H)-3,1-thienoxazin-2-one]

Same assay, conditions: inhibition at 1,000 nM; 1 nM [3H]OT, 60 minutes, 22° C., pH 7.4; read-out: Result For [3H]OT (% inhib. at 1,000 nM)

Compound | inhibition at 1 µM
COc1cc(OC2CCN(C(=O)OC(C)(C)C)CC2)ccc1C(=O)N1CCC(N2C(=O)COc3ccccc32)CC1 [Example 41, 4-(1-(4-(4-(1-t-Butyloxycarbonyl)piperidinyloxy)-2-methoxybenzoyl)piperidin-4-yl)-(2H)-1,4-benzoxazin-3(4H)-one] | 42%
COc1cc(C(=O)N2CCN(C(=O)OC(C)(C)C)CC2)ccc1C(=O)N1CCC(N2C(=O)OCc3ccccc32)CC1 [Example 39, 1-(1-(4-(4-(t-Butyloxycarbonyl)piperazin-1-ylcarbonyl)-2-methoxybenzoyl)piperidin-4-yl)-1,2-dihydro-4(H)-3,1-benzoxazin-2-one] | 46%
Cc1cc(OC2CCN(C(=O)OC(C)(C)C)CC2)ccc1C(=O)N1CCC(N2C(=O)OCc3ccccc32)CC1 [Example 43, 1-(1-(4-(N-t-Butoxycarbonyl-4-piperidinyloxy)-2-methylbenzoyl)piperidin-4-yl)-1,2-dihydro-4(H)-3,1-benzoxazin-2-one] | 59%
CC(C)(C)OC(=O)N1CCC(C(=O)NCCCOc2ccc(C(=O)N3CCC(N4C(=O)OCc5ccccc54)CC3)c(O)c2)CC1 [Example 49, 1-(1-(4-(3-(N-t-Butyloxycarbonylpiperidin-4-ylcarbonylamino)propoxy)-2-hydroxybenzoyl)piperidin-4-yl)-1,2-dihydro-4(H)-3,1-benzoxazin-2-one] | 72%

Same assay, conditions: inhibition at 10,000 nM; 1 nM [3H]OT, 60 minutes, 22° C., pH 7.4; read-out: Result For [3H]OT (% inhib. at 10,000 nM)

Compound | inhibition at 10 µM
O=C(c1ccc(OCC2CCCNC2)cc1)N1CCC(N2C(=O)OCc3ccccc32)CC1 (centres unmarked) [Example 32, 1-(1-(4-(3-Piperidinylmethoxy)benzoyl)piperidin-4-yl)-1,2-dihydro-4(H)-3,1-benzoxazin-2-one] | 78%
COc1ccc(C(=O)N2CC(N3C(=O)OCc4ccccc43)C2)c(OC)c1 [Example 57, 1-(1-(2,4-Dimethoxybenzoyl)azetidin-3-yl)-1,2-dihydro-4(H)-3,1-benzoxazin-2-one] | 54%
O=C(c1ccccn1)N1CCC(N2C(=O)OCc3ccccc32)CC1 [Example 3] | 40%
O=C(c1cc2ccccc2[nH]1)N1CCC(N2C(=O)OCc3ccccc32)CC1 [Example 4] | 78%
COc1ccc(C(=O)N2CCC(N3C(=O)OCc4ccccc43)CC2C#N)c(OC)c1 (centres unmarked) [Example 60, 1-(1-(2,4-dimethoxybenzoyl)-2-cyanopiperidin-4-yl)-1,2-dihydro-4(H)-3,1-benzoxazin-2-one] | 70%
COc1ccc(C(=O)N2CCC(N3C(=O)OC(C)(C)c4ccccc43)CC2)c(OC)c1 [Example 61, 1-(1-(2,4-dimethoxybenzoyl)piperidin-4-yl)-4,4-dimethyl-1,2-dihydro-4(H)-3,1-benzoxazin-2-one] | 64%
COc1cc(OC)c(C(=O)N2CCC(N3C(=O)OCc4ccccc43)CC2)c(OC)c1 [Example 1] | 61%
COc1ccc(C(=O)N2CCC(N3C(=O)N(C)Cc4ccccc43)CC2)c(OC)c1 [Example 36, 1-(2,4-Dimethoxybenzoylpiperidin-4-yl)-3,4-dihydro-3-methylquinazolin-2(1H)-one] | 48%
